# Source: patent US20070154405A1, “AEROSOL APPARATUS CONTAINING A COMPOSITION FOR APPLYING SIMULTANEOUSLY SEVERAL TOPICAL STIMULI” (priority 2005, published 2007)
# “And” between values parts separate entries of the source, which are not always exact repeats. Equal entries are not always repeated.
# Key:
# [1] = tested on: Itching (Atopic Dermatitis); assay: Clinical Study 2: itching by patient VAS in atopic dermatitis patients; assay type: in vivo, human
# From the text: 125 Patients took part in a comparative, randomized, single (observer) blind, controlled clinical study. […] The age difference for both groups of males and females was statistically insignificant t=0.551, P=0.582 and t=1.307, P=0.194 respectively. […] The similar distribution allowed for a matching analysis with no statistical difference where Chi-square test=0.001, P=0.976. Due to the subjective nature of this symptom, all the patients were given VAS (Visual analogue scale graded 0=no itch to 10=severe itch) to complete at home twice daily, once in the morning and once in the evening, on the fifth, sixth and seventh day, after allowing for a washout period of four days. Table IX clarify the mean VAS score in both groups after treatment with their respective intervention. The N1 group has experienced a significant decline in their VAS score throughout the 5th, 6th and 7th days where paired t test for the decline in the 5th day=6.96, P=0.001 and for the 6th day=6.74, P=0.001 and for the 7th day=2.76, p=0.006.
# [2] = tested on: Atopic Dermatitis; assay: Clinical Study 2: randomized single blind comparison of N1 and Hydrocortisone 1% in atopic dermatitis, SASSAD severity score; assay type: in vivo, human
# From the text: The patients taking part in the clinical studies were given free kits of the aerosol apparatus of the present invention and a set of instructions detailing method of use as follows: 1) Remove clothing of the area of application. 2) If the face needs to be treated, the eyes should be closed or masked (for babies or small children) 3) Hold the apparatus at a distance of 10 cm-20 cm approximately. 4) Press the apparatus's actuator to release the water-based particles. 5) Apply for a few seconds or as needed then leave the treated areas to dry untouched. Repeat as many times as needed until the symptoms ease. 6) In chronic cases and in order to speed the healing process, apply a daily regimen of four times per day, once before bedtime until symptoms reduce or disappear.
# 125 Patients took part in a comparative, randomized, single (observer) blind, controlled clinical study.
# The scoring system used to evaluate the results of both groups is “Six area, six sign atopic dermatitis (SASSAD) severity score [Jones J B. Six area, six sign atopic dermatitis (SASSAD) severity score: A simple system for monitoring disease activity in atopic dermatitis. Br J Dermatol. 1996; 135 (Suppl 48): 25-30] […] The signs are: Dryness, lichenification, cracking, erythema, exudation and excoriation. the six areas of the body are head, neck, trunk, arms, hands, legs and feet. The severity of the lesions are assessed as 0, 1, 2 and 3 for no lesion, mild, moderate and severe lesions respectively for each sign in each body area resulting in a score of maximum 18 for each sign. The six signs were evaluated objectively by the investigating physicians. Itching being a subjective symptom was evaluated by the patient.
# The atopic dermatitis diagnosis was based on [Hanifin J. M., Rajka G. Diagnostic Features of Atopic Dermatitis, Acta Derma (Stock) Suppl. 92:44-47, 1980].
# [3] = Base score, listed as hydrocortisone
# [4] = Week 1, listed as hydrocortisone
compound,measurement,setting,value
C[C@]12CCC(=O)C=C1CC[C@@H]1[C@@H]2[C@@H](O)C[C@@]2(C)[C@H]1CC[C@]2(O)C(=O)CO [Hydrocortisone],"itch free duration, mean",[1]; 3 day self-monitoring period,1.76 ± 1.21 h
same,Mean itch VAS (0=no itch to 10=severe itch),[1]; Day 5 Evening,7.69
same,Mean itch VAS (0=no itch to 10=severe itch),[1]; Day 5 Morning,8.01
same,Mean itch VAS (0=no itch to 10=severe itch),"[1]; Day 5 Morning, listed as hydrocortisone",8.01±1.65
same,Mean itch VAS (0=no itch to 10=severe itch),[1]; Day 6 Evening,7.06
same,Mean itch VAS (0=no itch to 10=severe itch),[1]; Day 6 Morning,7.17
same,Mean itch VAS (0=no itch to 10=severe itch),[1]; Day 7 Evening,6.58
same,Mean itch VAS (0=no itch to 10=severe itch),"[1]; Day 7 Evening, listed as hydrocortisone",6.58±1.97
same,Mean itch VAS (0=no itch to 10=severe itch),[1]; Day 7 Morning,6.63
same,Mean itch VAS (0=no itch to 10=severe itch),"[1]; Day 7 Morning, listed as hydrocortisone",6.63±1.93
same,Mean Cracking score,[2]; Base score,1.17
same,Mean Dryness score,[2]; Base score,4.32
same,Mean Erythema score,[2]; Base score,3.6
same,Mean Excoriation score,[2]; Base score,2.7
same,Mean Exudation score,[2]; Base score,3.18
same,Mean Lichenification score,[2]; Base score,2.44
same,Mean Erythema score,[2]; [3],3.6±2.5
same,Mean Lichenification score,[2]; [3],2.44±1.7
same,Mean Dryness score,[2]; Week 1,2.9
same,Mean Erythema score,[2]; Week 1,2.9
same,Mean Excoriation score,[2]; Week 1,1.97
same,Mean Exudation score,[2]; Week 1,2.5
same,Mean Lichenification score,[2]; Week 1,1.55
same,Mean Exudation score,[2]; [4],2.5±2.4
same,Mean Lichenification score,[2]; [4],1.55±1.9
same,Mean Dryness score,[2]; Week 2,2.13
same,Mean Erythema score,[2]; Week 2,1.8
same,Mean Excoriation score,[2]; Week 2,1.6
same,Mean Lichenification score,[2]; Week 2,.82
same,Mean Lichenification score,"[2]; Week 2, listed as hydrocortisone",0.82±1.3
same,group cleared of atopic dermatitis (SASSAD score of 0 or 1),[2]; after Week One,14%
same,group cleared of Atopic dermatitis,"[2]; after two weeks treatment, total",11%
same,patients cleared from atopic dermatitis (SASSAD score=0),[2]; after week one,9 patients
same,"patients cleared from atopic dermatitis (SASSAD score=0), percent of group",[2]; after week one,3.81%
same,Mean SASSAD score,"[2]; at baseline, before treatment",17.51±7.37 and 17.52 and 17.5
same,Mean SASSAD score,"[2]; at baseline, before treatment, listed as hydrocortisone",17.52±7.37
same,group cleared of atopic dermatitis (SASSAD score of 0 or 1),[2]; at the end of Week Two,6.3%
same,Mean SASSAD score,[2]; end of week one,12.82±8.34 and 12.52±8.34 and 12.82 and 12.5
same,Mean SASSAD score,"[2]; end of week two, patients who continued treatment",8.4±6 and 8.4
same,Mean SASSAD score,"[2]; end of week two, patients who continued treatment, listed as hydrocortisone",8.4±6
